Results on 21 molecules are retold here after patent US8618289B2 (Ambit Biosciences Corporation, priority 2008, dated 2013).

Assay [1] concerns MEK1 phosphorylation in the A375 human melanoma cell line. Description: cells. The conditions noted are these: A-375, read-out: pMEK IC50.
Experimental: A375 cells (from American Type Culture Collection) were plated at 50,000 cells per well in DMEM (Mediatech) with 10% fetal bovine serum (Omega Scientific) into a 96 well plate and incubated overnight in a 37° C. incubator with 10% CO2. The cells were then washed with PBS and the medium replaced with 0.5% FBS for incubation overnight. […] The cells were incubated with compound or control for two hours at 37° C. The compound solution was aspirated off and the cells washed with cold PBS. […] The plate was centrifuged for 30 minutes to pellet out the cell debris. The cleared lysates were transferred to a 96-well Nunc plate and the ELISA protocol described by the manufacturer in Catalog #KHO0321 or KHO0291 was followed.
The test system of assay [2] is A375 cells. The assay is described as follows: cells. The conditions noted are these: Homo sapiens, A-375, read-out: A375 Viability EC50.
For assay [3], the target named is RAF kinases (Homo sapiens, UniProt P15056). The assay is described as follows: biochemical.
Sequence of RAF kinases (P15056 whole entry): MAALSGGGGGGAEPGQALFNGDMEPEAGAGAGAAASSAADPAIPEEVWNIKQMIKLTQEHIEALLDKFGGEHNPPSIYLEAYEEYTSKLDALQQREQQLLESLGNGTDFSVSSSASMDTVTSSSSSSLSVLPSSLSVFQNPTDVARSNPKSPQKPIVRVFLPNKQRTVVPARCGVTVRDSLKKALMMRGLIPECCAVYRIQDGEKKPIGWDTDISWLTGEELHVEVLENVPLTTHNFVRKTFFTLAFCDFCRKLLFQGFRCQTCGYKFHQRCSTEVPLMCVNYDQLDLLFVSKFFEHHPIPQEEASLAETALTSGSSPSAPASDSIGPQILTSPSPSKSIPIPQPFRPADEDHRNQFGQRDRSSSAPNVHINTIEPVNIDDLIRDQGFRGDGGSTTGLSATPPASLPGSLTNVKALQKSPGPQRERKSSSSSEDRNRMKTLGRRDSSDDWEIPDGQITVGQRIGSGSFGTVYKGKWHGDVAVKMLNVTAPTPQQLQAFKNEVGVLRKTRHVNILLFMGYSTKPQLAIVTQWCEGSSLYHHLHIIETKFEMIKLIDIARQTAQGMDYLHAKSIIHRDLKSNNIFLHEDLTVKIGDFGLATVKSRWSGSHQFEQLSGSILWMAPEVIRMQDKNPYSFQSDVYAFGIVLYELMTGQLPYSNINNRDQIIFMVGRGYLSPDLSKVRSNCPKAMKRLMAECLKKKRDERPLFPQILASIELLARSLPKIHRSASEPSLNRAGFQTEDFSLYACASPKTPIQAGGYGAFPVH

By IC50 is commonly meant the concentration needed to halve the response being measured. By EC50 is commonly meant the concentration needed to bring the measured effect to its halfway point. In general, Kd refers to the constant that tells how readily two partners part at equilibrium. A lower Kd goes with a tighter complex. For the molecule `COc1cc2ncnc(Oc3cccc(NC(=O)Nc4cc(C(C)(C)C)on4)c3)c2cc1OCCCN1CCS(=O)(=O)CC1` [Ex 26, 1-(5-tert-butyl-isoxazol-3-yl)-3-(3-{6-[3-(1,1-dioxo-thiomorpholin-4-yl)-propoxy]-7-methoxy-quinazolin-4-yloxy}-phenyl)-urea], the IC50 in assay [1] was less than 250 nM. In addition, in assay [2], the EC50 is less than 250 nM. Moreover, the Kd in assay [3] fell in the range of 250 to 500 nM.

`COc1cc2ncnc(Sc3cccc(NC(=O)Nc4cc(C(C)(C)C)on4)c3)c2cc1OCCCN1CCOCC1` [Ex 63, 1-(5-tert-butylisoxazol-3-yl)-3-(3-(7-methoxy-6-(3-morpholinopropoxy)quinazolin-4-ylthio)phenyl)urea]: the IC50 in assay [1] was less than 250 nM. For the same molecule, the EC50 in assay [2] lay within 500 to 1000 nM. In assay [3], this molecule had a Kd of 250 to 500 nM.

As to `COc1cc2ncnc(Oc3cccc(NC(=O)Nc4cc(C(C)(C)C)on4)c3)c2cc1OC[C@@H](O)CN1CCN(C)CC1` [Ex 111, (S)-1-(5-tert-butylisoxazol-3-yl)-3-(3-(6-(2-hydroxy-3-(4-methylpiperazin-1-yl)propoxy)-7-methoxyquinazolin-4-yloxy)phenyl)urea], the IC50 in assay [1] is less than 250 nM. Besides, the EC50 in assay [2] is 250 to 500 nM. In assay [3], this molecule came in with a Kd of 250 to 500 nM.

With `COc1cc2ncnc(Oc3cccc(NC(=O)Nc4ccc(OC)c(C(F)(F)F)c4)c3)c2cc1OC` [Ex 138, 1-(3-(6,7-dimethoxyquinazolin-4-yloxy)phenyl)-3-(4-methoxy-3-(trifluoromethyl)phenyl)urea], the IC50 in assay [1] lay within 250 to 500 nM. For the same molecule, in assay [2], the EC50 is greater than 1000 nM. This molecule displayed a Kd in assay [3] of 250 to 500 nM.

For the molecule `COc1cc2ncnc(Oc3cccc(NC(=O)Nc4cc(C5CCCC5)on4)c3)c2cc1OC` [Ex 135, 1-(5-cyclopentylisoxazol-3-yl)-3-(3-(6,7-dimethoxyquinazolin-4-yloxy)phenyl)urea], the IC50 in assay [1] is less than 250 nM. The EC50 in assay [2] lay in the range of 250 to 500 nM.

`COc1cc2c(Oc3cccc(NC(=O)Nc4cc(C(C)(C)C)on4)c3)ncnc2cc1OC1CCN(CC(F)F)CC1` [Ex 105, 1-(5-tert-butylisoxazol-3-yl)-3-(3-{7-[1-(2,2-difluoroethyl)piperidin-4-yloxy]-6-methoxyquinazolin-4-yloxy}phenyl)urea]: the IC50 in assay [1] is greater than 1000 nM. The EC50 in assay [2] was greater than 1000 nM.

Turning to `COc1cc2ncnc(Sc3cccc(NC(=O)Nc4cc(C(C)(C)C)on4)c3)c2cc1OCCN1CCS(=O)(=O)CC1` [Ex 71, 1-(5-tert-butyl-isoxazol-3-yl)-3-(3-{6-[2-(1,1-dioxo-thiomorpholin-4-yl)-ethoxy]-7-methoxy-quinazolin-4-ylsulfanyl}-phenyl)-urea], the IC50 in assay [1] was less than 250 nM. The EC50 in assay [2] is 250 to 500 nM.

On to `COc1cc2ncnc(Oc3cccc(NC(=O)Nc4cc(C(F)(F)F)n(C)n4)c3)c2cc1OC` [Ex 165, 1-[3-(6,7-dimethoxyquinazolin-4-yloxy)phenyl]-3-[1-methyl-5-(trifluoromethyl)-1H-pyrazol-3-yl]urea], for which the half-maximal inhibitory concentration (IC50) in assay [1] was in the range of 250 to 500 nM. Also, in assay [2], the EC50 is 500 to 1000 nM.

With `COc1cc2ncnc(Sc3cccc(NC(=O)Nc4cc(C(C)C)on4)c3)c2cc1OC` [Ex 134, 1-(3-(6,7-dimethoxyquinazolin-4-ylthio)phenyl)-3-(5-isopropylisoxazol-3-yl)urea], the IC50 in assay [1] lay in the range of 250 to 500 nM. For the same molecule, the EC50 in assay [2] was greater than 1000 nM.

In the case of `COc1cc2ncnc(Oc3cccc(NC(=O)Nc4cc(C5(C)CC5)on4)c3)c2cc1OC` [Ex 127, 1-(3-(6,7-dimethoxyquinazolin-4-yloxy)phenyl)-3-(5-(1-methylcyclopropyl)isoxazol-3-yl)urea], in assay [1], the IC50 fell in the range of 250 to 500 nM. Moreover, the EC50 in assay [2] was greater than 1000 nM.

As for `COc1cc2c(Oc3cccc(NC(=O)Nc4cc(C(C)(C)C)on4)c3)ncnc2cc1O[C@H]1CCN(CC(F)(F)F)C1` [Ex 104, (S)-1-(5-tert-butylisoxazol-3-yl)-3-(3-{6-methoxy-7-[1-(2,2,2-trifluoroethyl)pyrrolidin-3-yloxy]quinazolin-4-yloxy}phenyl)urea], the IC50 in assay [1] was 500 to 1000 nM. In addition, the EC50 in assay [2] was greater than 1000 nM.

Turning to `COc1cc2ncnc(Oc3cccc(NC(=O)Nc4cc(C5CC5)no4)c3)c2cc1OC` [Ex 124, 1-(3-cyclopropylisoxazol-5-yl)-3-(3-(6,7-dimethoxyquinazolin-4-yloxy)phenyl)urea], the IC50 in assay [1] was greater than 1000 nM. In assay [2], the EC50 is greater than 1000 nM.

As to `COc1cc2ncnc(Oc3cccc(NC(=O)Nc4cc(C(C)(C)F)on4)c3)c2cc1OC` [Ex 136, 1-(3-(6,7-dimethoxyquinazolin-4-yloxy)phenyl)-3-(5-(2-fluoropropan-2-yl)isoxazol-3-yl)urea], in assay [1], the concentration for half-maximal inhibition (IC50) is less than 250 nM. Also, in assay [2], the EC50 fell in the range of 250 to 500 nM.

Take `COc1cc2ncnc(Oc3cccc(NC(=O)Nc4cc(C(C)(CF)CF)nn4-c4ccccc4)c3)c2cc1OC` [Ex 167, 1-[3-(1,3-difluoro-2-methylpropan-2-yl)-1-phenyl-1H-pyrazol-5-yl]-3-[3-(6,7-dimethoxyquinazolin-4-yloxy)phenyl]urea]: the IC50 in assay [1] is less than 250 nM. Further, in assay [2], the EC50 was in the range of 500 to 1000 nM.

Consider `COc1cc2ncnc(Sc3cccc(NC(=O)Nc4cc(C(C)(CF)CF)nn4-c4ccccc4)c3)c2cc1OC` [Ex 196, 1-[3-(1,3-difluoro-2-methylpropan-2-yl)-1-phenyl-1H-pyrazol-5-yl]-3-[3-(6,7-dimethoxyquinazolin-4-ylthio)phenyl]urea], for which the IC50 in assay [1] was less than 250 nM. In assay [2], the EC50 was greater than 1000 nM.

Take `COc1cc2ncnc(Oc3cccc(NC(=O)Nc4cc(C(F)(F)F)ccn4)c3)c2cc1OC` [Ex 141, 1-(3-(6,7-dimethoxyquinazolin-4-yloxy)phenyl)-3-(4-(trifluoromethyl)pyridin-2-yl)urea]: the IC50 in assay [1] lay within 500 to 1000 nM. Also, the EC50 in assay [2] was greater than 1000 nM.

Regarding `COc1cc2ncnc(Sc3cccc(NC(=O)Nc4cc(C(C)(C)C)on4)c3)c2cc1OCCS(C)(=O)=O` [Ex 88, 1-(5-tert-butylisoxazol-3-yl)-3-(3-(7-methoxy-6-(2-(methylsulfonyl)ethoxy)quinazolin-4-ylthio)phenyl)urea], in assay [1], the IC50 was less than 250 nM. Also, the EC50 in assay [2] lay within 500 to 1000 nM.

For `COc1cc2ncnc(Oc3cccc(NC(=O)Nc4cc(C(C)C)on4)c3)c2cc1OC` [Ex 133, 1-(3-(6,7-dimethoxyquinazolin-4-yloxy)phenyl)-3-(5-isopropylisoxazol-3-yl)urea], the IC50 in assay [1] lay within 250 to 500 nM. Also, in assay [2], the EC50 lay within 500 to 1000 nM.

Regarding `COc1cc2ncnc(Sc3cccc(NC(=O)Nc4cc(C(F)(F)F)nn4C)c3)c2cc1OC` [Ex 193, 1-[3-(6,7-dimethoxyquinazolin-4-ylthio)phenyl]-3-[1-methyl-3-(trifluoromethyl)-1H-pyrazol-5-yl]urea], the IC50 in assay [1] was less than 250 nM. The EC50 in assay [2] fell in the range of 500 to 1000 nM.

Regarding `COc1cc2ncnc(Oc3cccc(NC(=O)Nc4cc(C(C)(C)C)on4)c3)c2cc1O[C@H]1CCN(C)C1` [Ex 109, (S)-1-(5-tert-butylisoxazol-3-yl)-3-(3-(7-methoxy-6-(1-methylpyrrolidin-3-yloxy)quinazolin-4-yloxy)phenyl)urea], the IC50 in assay [1] was less than 250 nM. The EC50 in assay [2] fell in the range of 250 to 500 nM.

As for `COc1cc2ncnc(Oc3cccc(NC(=O)Nc4ccc(Cl)cc4)c3)c2cc1OC` [Ex 175, 1-(4-chlorophenyl)-3-(3-(6,7-dimethoxyquinazolin-4-yloxy)phenyl)urea], the IC50 in assay [1] is greater than 1000 nM. For the same molecule, the EC50 in assay [2] is greater than 1000 nM.
